Data published in patent publication US10588315B2, “Fungicidal compositions” (Syngenta Participations AG, priority 2012, dated 2020).
Where “and” joins values, the source holds several entries; their conditions need not be identical. Equal values may be shown once. Read-outs that look alike come from different tables or passages of the source.

What was measured:
Type in all cases: cell-based
Alternaria solani = Alternaria solani / liquid culture; conditions: for inhibition at 0.0031 ppm: 1.001 0.0031 ppm
Protocol: (§1) Mycelia fragments or conidia suspensions of a fungus, prepared either freshly from liquid cultures of the fungus or from cryogenic storage, were directly mixed into nutrient broth. DMSO solutions of the test compound (max. 10 mg/ml) was diluted with 0.025% Tween20 by factor 50 and 10 μl of this solution was pipetted into a microtiter plate (96-well format). The nutrient broth containing the fungal spores/mycelia fragments was then added to give an end concentration of the tested compound. The test plates were incubated in the dark at 24° C. and 96% rh. The inhibition of fungal growth was determined photometrically and visually after 2-4 days, depending on the pathosystem, and percent antifungal activity relative to the untreated check was calculated.
(§2) Conidia of the fungus from cryogenic storage were directly mixed into nutrient broth (PDB potato dextrose broth). After placing a (DMSO) solution of test compound into a microtiter plate (96-well format), the nutrient broth containing the fungal spores was added.

[1] = system: Botryotinia fuckeliana (Botrytis cinerea); test: Botryotinia fuckeliana (Botrytis cinerea) / liquid culture
Protocol: as §1, with “The nutrient broth containing the fungal spores/mycelia fragments was then added to give an end concentration of the tested compound.” left out
Conidia of the fungus from cryogenic storage were directly mixed into nutrient broth (Vogels broth). After placing a (DMSO) solution of test compound into a microtiter plate (96-well format), the nutrient broth containing the fungal spores was added.

Gaeumannomyces graminis = Gaeumannomyces graminis / liquid culture; conditions: for inhibition at 0.2 ppm: 1.001 0.2000 ppm; for inhibition at 0.1 ppm: 1.001 0.1000 ppm
Protocol: as §1
Mycelial fragments of the fungus from cryogenic storage were directly mixed into nutrient broth (PDB potato dextrose broth). After placing a (DMSO) solution of test compound into a microtiter plate (96-well format), the nutrient broth containing the fungal spores was added.

[2] = system: Monographella nivalis (Microdochium nivale); test: Monographella nivalis (Microdochium nivale) / liquid culture; conditions: for inhibition at 0.025 ppm: 1.001 0.0250 ppm; for inhibition at 0.05 ppm: 1.001 0.0500 ppm
Protocol: as §1, §2

[3] = system: Mycosphaerella graminicola (Septoria tritici); test: Mycosphaerella graminicola (Septoria tritici) / liquid culture; conditions: Zymoseptoria tritici, read-out: observed % activity; for inhibition at 0.0031 ppm: 1.001 0.0031 ppm; for inhibition at 0.0016 ppm: 1.001 0.0016 ppm; for inhibition at 0.0008 ppm: 1.001 0.0008 ppm
Protocol: as §1, §2

[4] = system: Thanatephorus cucumeris (Rhizoctonia solani); test: Thanatephorus cucumeris (Rhizoctonia solani) / liquid culture; conditions: for inhibition at 0.1 ppm: 1.001 0.1000 ppm; for inhibition at 0.05 ppm: 1.001 0.0500 ppm
Protocol: as §1
Mycelia fragments of a newly grown liquid culture of the fungus were directly mixed into nutrient broth (PDB potato dextrose broth). After placing a (DMSO) solution of the test compounds into a microtiter plate (96-well format), the nutrient broth containing the fungal material was added.

[5] = Gaeumannomyces graminis, B4.1, read-out: observed % activity
[6] = Gaeumannomyces graminis, B5.1, read-out: observed % activity
[7] = Gaeumannomyces graminis, B9.1, read-out: observed % activity
[8] = Monographella nivalis, B1.3, read-out: observed % activity
[9] = Monographella nivalis, B2.3, read-out: observed % activity
[10] = Monographella nivalis, B5.4, read-out: observed % activity
[11] = Thanatephorus cucumeris, B5.5, read-out: observed % activity

## CON(C(=O)c1cn(C)nc1C(F)F)C(C)Cc1c(Cl)cc(Cl)cc1Cl (centres unmarked) [Compound 1.001, 3-(difluoromethyl)-N-methoxy-1-methyl-N-[1-methyl-2-(2,4,6-trichlorophenyl)ethyl]pyrazole-4-carboxamide]
Alternaria solani; 1.001 0.0004 ppm
  observed % activity: 11% and 10%
Alternaria solani; 1.001 0.0008 ppm
  observed % activity: 24%
Alternaria solani; 1.001 0.0016 ppm
  observed % activity: 40% and 46%
Alternaria solani; Alternaria solani, 1.001 0.0004 ppm, read-out: observed % activity
  inhibition at 0.0004 ppm: 9%
Alternaria solani; Alternaria solani, 1.001 0.0063 ppm, read-out: observed % activity
  inhibition at 0.0063 ppm: 75%
Alternaria solani; Alternaria solani, B1.2, 1.001 0.0008 ppm, read-out: observed % activity
  inhibition at 0.0008 ppm: 4%
Alternaria solani; Alternaria solani, B1.2, 1.001 0.0016 ppm, read-out: observed % activity
  inhibition at 0.0016 ppm: 32%
Alternaria solani; Alternaria solani, B1.2, read-out: observed % activity
  inhibition at 0.0031 ppm: 64%
Alternaria solani; Alternaria solani, B2.2, 1.001 0.0016 ppm, read-out: observed % activity
  inhibition at 0.0016 ppm: 39%
Alternaria solani; Alternaria solani, B3.2, 1.001 0.0016 ppm, read-out: observed % activity
  inhibition at 0.0016 ppm: 45%
Alternaria solani; Alternaria solani, B3.2, read-out: observed % activity
  inhibition at 0.0031 ppm: 66%
Alternaria solani; Alternaria solani, B4.2, 1.001 0.0008 ppm, read-out: observed % activity
  inhibition at 0.0008 ppm: 29%
Alternaria solani; Alternaria solani, B4.2, 1.001 0.0016 ppm, read-out: observed % activity
  inhibition at 0.0016 ppm: 47%
Alternaria solani; Alternaria solani, B4.2, read-out: observed % activity
  inhibition at 0.0031 ppm: 73%
Alternaria solani; Alternaria solani, B5.2, 1.001 0.0008 ppm, read-out: observed % activity
  inhibition at 0.0008 ppm: 3%
Alternaria solani; Alternaria solani, B5.2, 1.001 0.0016 ppm, read-out: observed % activity
  inhibition at 0.0016 ppm: 36%
Alternaria solani; Alternaria solani, B5.2, read-out: observed % activity
  inhibition at 0.0031 ppm: 75%
Alternaria solani; Alternaria solani, B6.2, 1.001 0.0016 ppm, read-out: observed % activity
  inhibition at 0.0016 ppm: 35%
Alternaria solani; Alternaria solani, B6.2, read-out: observed % activity
  inhibition at 0.0031 ppm: 71%
Alternaria solani; Alternaria solani, B9.2, 1.001 0.0016 ppm, read-out: observed % activity
  inhibition at 0.0016 ppm: 37%
Alternaria solani; Alternaria solani, B9.2, read-out: observed % activity
  inhibition at 0.0031 ppm: 67%
[1]; 1.001 0.0031 ppm
  observed % activity: 76%
[1]; 1.001 0.0063 ppm
  observed % activity: 69% and 63% and 85% and 64% and 88% and 74% and 87%
[1]; 1.001 0.0125 ppm
  observed % activity: 84% and 88%
[1]; Botrytis cinerea, 1.001 0.0016 ppm (Table B55), read-out: observed % activity
  inhibition at 0.0016 ppm: 38%
[1]; Botrytis cinerea, 1.001 0.0031 ppm (Table B54), read-out: observed % activity
  inhibition at 0.0031 ppm: 75%
[1]; Botrytis cinerea, 1.001 0.0031 ppm (Table B55), read-out: observed % activity
  inhibition at 0.0031 ppm: 53%
[1]; Botrytis cinerea, 1.001 0.0063 ppm (Table B54), read-out: observed % activity
  inhibition at 0.0063 ppm: 89%
[1]; Botrytis cinerea, 1.001 0.0063 ppm (Table B55), read-out: observed % activity
  inhibition at 0.0063 ppm: 66%
[1]; Botrytis cinerea, 1.001 0.0125 ppm, read-out: observed % activity
  inhibition at 0.0125 ppm: 83%
Gaeumannomyces graminis; 1.001 0.0063 ppm
  observed % activity: 10%
Gaeumannomyces graminis; 1.001 0.0125 ppm
  observed % activity: 1%
Gaeumannomyces graminis; 1.001 0.0250 ppm
  observed % activity: 6%
Gaeumannomyces graminis; 1.001 0.0500 ppm
  observed % activity: 3% and 1% and 9%
Gaeumannomyces graminis; Gaeumannomyces graminis, 1.001 0.0016 ppm, read-out: observed % activity
  inhibition at 0.0016 ppm: 0%
Gaeumannomyces graminis; Gaeumannomyces graminis, B1.1, read-out: observed % activity
  inhibition at 0.2 ppm: 7%
Gaeumannomyces graminis; Gaeumannomyces graminis, B2.1, 1.001 0.0125 ppm, read-out: observed % activity
  inhibition at 0.0125 ppm: 0%
Gaeumannomyces graminis; Gaeumannomyces graminis, B2.1, 1.001 0.0250 ppm, read-out: observed % activity
  inhibition at 0.025 ppm: 4%
Gaeumannomyces graminis; Gaeumannomyces graminis, B2.1, 1.001 0.0500 ppm, read-out: observed % activity
  inhibition at 0.05 ppm: 0%
Gaeumannomyces graminis; Gaeumannomyces graminis, B2.1, read-out: observed % activity
  inhibition at 0.1 ppm: 0%
Gaeumannomyces graminis; Gaeumannomyces graminis, B3.1, 1.001 0.0031 ppm, read-out: observed % activity
  inhibition at 0.0031 ppm: 0%
Gaeumannomyces graminis; Gaeumannomyces graminis, B3.1, 1.001 0.0063 ppm, read-out: observed % activity
  inhibition at 0.0063 ppm: 0%
Gaeumannomyces graminis; Gaeumannomyces graminis, B3.1, 1.001 0.0125 ppm, read-out: observed % activity
  inhibition at 0.0125 ppm: 8%
Gaeumannomyces graminis; Gaeumannomyces graminis, B3.1, 1.001 0.0250 ppm, read-out: observed % activity
  inhibition at 0.025 ppm: 0%
Gaeumannomyces graminis; Gaeumannomyces graminis, B3.1, 1.001 0.0500 ppm, read-out: observed % activity
  inhibition at 0.05 ppm: 0%
Gaeumannomyces graminis; Gaeumannomyces graminis, B4.1, 1.001 0.0125 ppm, read-out: observed % activity
  inhibition at 0.0125 ppm: 0%
Gaeumannomyces graminis; Gaeumannomyces graminis, B4.1, 1.001 0.0250 ppm, read-out: observed % activity
  inhibition at 0.025 ppm: 0%
Gaeumannomyces graminis; Gaeumannomyces graminis, B4.1, 1.001 0.0500 ppm, read-out: observed % activity
  inhibition at 0.05 ppm: 0%
Gaeumannomyces graminis; [5]
  inhibition at 0.1 ppm: 0%
  inhibition at 0.2 ppm: 12%
Gaeumannomyces graminis; Gaeumannomyces graminis, B5.1, 1.001 0.0250 ppm, read-out: observed % activity
  inhibition at 0.025 ppm: 0%
Gaeumannomyces graminis; Gaeumannomyces graminis, B5.1, 1.001 0.0500 ppm, read-out: observed % activity
  inhibition at 0.05 ppm: 2%
Gaeumannomyces graminis; [6]
  inhibition at 0.1 ppm: 0%
  inhibition at 0.2 ppm: 0%
Gaeumannomyces graminis; Gaeumannomyces graminis, B6.1, 1.001 0.0063 ppm, read-out: observed % activity
  inhibition at 0.0063 ppm: 0%
Gaeumannomyces graminis; Gaeumannomyces graminis, B6.1, 1.001 0.0250 ppm, read-out: observed % activity
  inhibition at 0.025 ppm: 0%
Gaeumannomyces graminis; Gaeumannomyces graminis, B6.1, read-out: observed % activity
  inhibition at 0.1 ppm: 0%
Gaeumannomyces graminis; Gaeumannomyces graminis, B9.1, 1.001 0.0125 ppm, read-out: observed % activity
  inhibition at 0.0125 ppm: 0%
Gaeumannomyces graminis; Gaeumannomyces graminis, B9.1, 1.001 0.0250 ppm, read-out: observed % activity
  inhibition at 0.025 ppm: 0%
Gaeumannomyces graminis; Gaeumannomyces graminis, B9.1, 1.001 0.0500 ppm, read-out: observed % activity
  inhibition at 0.05 ppm: 0%
Gaeumannomyces graminis; [7]
  inhibition at 0.1 ppm: 0%
  inhibition at 0.2 ppm: 0%
[2]; 1.001 0.0016 ppm
  observed % activity: 4%
[2]; 1.001 0.0031 ppm
  observed % activity: 10% and 6%
[2]; 1.001 0.0125 ppm
  observed % activity: 4%
[2]; 1.001 0.1000 ppm
  observed % activity: 61%
[2]; 1.001 0.2000 ppm
  observed % activity: 90% and 87% and 79%
[2]; Monographella nivalis, 1.001 0.004 ppm, read-out: observed % activity
  inhibition at 0.004 ppm: 0%
[2]; Monographella nivalis, 1.001 0.1000 ppm (Table B54), read-out: observed % activity
  inhibition at 0.1 ppm: 22%
[2]; Monographella nivalis, 1.001 0.1000 ppm (Table B55), read-out: observed % activity
  inhibition at 0.1 ppm: 19%
[2]; Monographella nivalis, 1.001 0.2000 ppm, read-out: observed % activity
  inhibition at 0.2 ppm: 85%
[2]; Monographella nivalis, B1.3, 1.001 0.0125 ppm, read-out: observed % activity
  inhibition at 0.0125 ppm: 0%
[2]; [8]
  inhibition at 0.025 ppm: 5%
  inhibition at 0.05 ppm: 45%
[2]; Monographella nivalis, B1.3, 1.001 0.2000 ppm, read-out: observed % activity
  inhibition at 0.2 ppm: 78%
[2]; [9]
  inhibition at 0.025 ppm: 0%
  inhibition at 0.05 ppm: 26%
[2]; Monographella nivalis, B3.4, 1.001 0.0008 ppm, read-out: observed % activity
  inhibition at 0.0008 ppm: 1%
[2]; Monographella nivalis, B4.3, read-out: observed % activity
  inhibition at 0.05 ppm: 15%
[2]; Monographella nivalis, B4.3, 1.001 0.1000 ppm, read-out: observed % activity
  inhibition at 0.1 ppm: 64%
[2]; [10]
  inhibition at 0.025 ppm: 2%
  inhibition at 0.05 ppm: 9%
[2]; Monographella nivalis, B5.4, 1.001 0.1000 ppm, read-out: observed % activity
  inhibition at 0.1 ppm: 60%
[2]; Monographella nivalis, B6.3, 1.001 0.0016 ppm, read-out: observed % activity
  inhibition at 0.0016 ppm: 0%
[2]; Monographella nivalis, B6.3, 1.001 0.0031 ppm, read-out: observed % activity
  inhibition at 0.0031 ppm: 3%
[3]; 1.001 0.0004 ppm
  inhibition at 0.0004 ppm: 9%
[3]
  inhibition at 0.0031 ppm: 88%
[3]; B1.5
  inhibition at 0.0016 ppm: 52%
[3]; B3.5
  inhibition at 0.0016 ppm: 42%
  inhibition at 0.0031 ppm: 83%
[3]; B5.6
  inhibition at 0.0008 ppm: 27%
  inhibition at 0.0016 ppm: 45%
  inhibition at 0.0031 ppm: 82%
[3]; B6.4
  inhibition at 0.0008 ppm: 11%
  inhibition at 0.0016 ppm: 53%
  inhibition at 0.0031 ppm: 89%
[4]; 1.001 0.0250 ppm
  observed % activity: 8%
[4]; Thanatephorus cucumeris, 1.001 0.0031 ppm, read-out: observed % activity
  inhibition at 0.0031 ppm: 5%
[4]; Thanatephorus cucumeris, 1.001 0.0063 ppm, read-out: observed % activity
  inhibition at 0.0063 ppm: 0%
[4]; Thanatephorus cucumeris, B1.4, 1.001 0.0125 ppm, read-out: observed % activity
  inhibition at 0.0125 ppm: 0%
[4]; Thanatephorus cucumeris, B1.4, 1.001 0.0250 ppm, read-out: observed % activity
  inhibition at 0.025 ppm: 6%
[4]; Thanatephorus cucumeris, B1.4, read-out: observed % activity
  inhibition at 0.1 ppm: 0%
[4]; Thanatephorus cucumeris, B5.5, 1.001 0.0250 ppm, read-out: observed % activity
  inhibition at 0.025 ppm: 13%
[4]; [11]
  inhibition at 0.05 ppm: 1%
  inhibition at 0.1 ppm: 17%
[4]; Thanatephorus cucumeris, B9.3, read-out: observed % activity
  inhibition at 0.05 ppm: 0%
[4]; Thanatephorus cucumeris, B9.3, 1.001 0.2000 ppm, read-out: observed % activity
  inhibition at 0.2 ppm: 6%
